One experiment deals with MDA-MB-453. Briefly: In vitro cytotoxic activity (Cell Titer Glo). The experiment is classed as cell-based, human. The following applies: MDA-MB-453, 3 to 4 days; read-out: In vitro potency (EC50 in pM). For orientation: Cellular ATP, detected with luciferase, serves as a proxy for viable cell number.
The subject of another experiment is T47D. Briefly: In vitro cytotoxic activity (Cell Titer Glo). The format is cell-based, human. The following applies: 3 to 4 days.
The next experiment relates to MDA-MB-361 model. Briefly: CBX xenograft tumor model. The format is in vivo, Athymic nude mice. The conditions noted are these: MDA-MB-361 CBX, 3 mg/kg. As to the method: (§1) All mouse experiments were carried out in compliance with the guidelines published by the Association for Assessment and Accreditation of Laboratory Animal Care (AAALAC) and protocols approved by the MedImmune Institutional Animal Care and Use Committee. Athymic nude mice between 4-8 weeks of age were used in the studies. In subcutaneous CBX models, animals were injected unilaterally on the right flank with tumor cells harvested from culture at a specific passage lot. In orthotopic CBX models, xenografts were established by injecting 5×10^6 cells per mouse (suspended in 50% matrigel) into the mammary fat pad on the right flank of animals. In PDX models, animals are implanted unilaterally on the flank with tumor fragments harvested from host animals each implanted from a specific passage lot. Pre-study tumor volumes were recorded for each experiment beginning approximately one week prior to its estimated start date. When tumors reach the appropriate tumor volume initiation (TVI) range (typically 150-250 mm^3), animals are randomized into treatment and control groups and dosing initiated. […] Animals were observed daily and tumor dimensions and body weights were measured and recorded twice weekly. Tumor volumes are calculated using the following formula: tumor volume=π÷6 (length×width^2). […]

Experiment [1] has as its system NCI-N87 and MDA-MB-468 cells co-culture. Briefly: Bystander effect co-culture assay (FACS). The conditions noted are these: co-culture of HER2-overexpressing NCI-N87 and HER2-null MDA-MB-468, 5 nM, 4 days. The experiment is classed as cell-based, human. Here is the method:
NCI-N87 cells were stably transfected with green fluorescent protein (GFP) and MDA-MB-468 cells were stably transfected with red fluorescent protein (RFP). Both cell lines were harvested, washed, resuspended in culture media and then seeded in the same well of a 6-well plate as co-culture. As a control, each cell line was seeded in a different 6-well plate as single culture (FIG. 28A). To adjust to different growth kinetics, NCI-N87 cells were seeded at 5×10^5 cells/well and MDA-MB-468 cells were seeded at 2×10^5 cells/well. Cells were incubated for 2 days at 37° C./5% CO2. Media were aspirated and fresh media containing 5 nM of antibody or ADC to be tested was added to cells and the plates were incubated for 4 days at 37° C./5% CO2. At the end of treatment, cells in each well were collected, washed, resuspended in 100 μL of ice-cold FACS buffer and then fixed with 2% PFA. Cells were analyzed by a BD LSR II machine and BD FACSDiva™ software. Data were analyzed with FlowJo software.

The test system of a further experiment is NCI-N87. The following applies: read-out: In vitro potency (EC50 in pM); NCI-N87, 3 to 4 days. Here is the method:
A panel of human cancer cell lines expressing various levels of HER2 was used to evaluate the cytotoxic activity of bispecific ADC (Table 5 in Example 1). Briefly, cells were harvested, resuspended, and plated in serum-containing culture media at a density of 5,000 to 20,000 per well (depending on the growth kinetics of each cell line) of 96-well plates in a volume of 100 μL. A 2× concentration of each dose of antibody or ADC to be tested was prepared by diluting the test articles in culture medium. One hundred microliters of each test article was added to cells in triplicate such that the final dose curve ranged from 5 nM down to 0.08 pM in a stepwise 1:4 serial dilution series. The treated cells were incubated at 37° C./5% CO2 for 3 to 4 days, depending on the growth kinetics of each particular cell line. Cell viability was determined using Cell Titer Glo according to manufacturer's instructions. Data are analyzed by the GraphPad Prism software and presented as percent growth inhibition relative to the untreated control. EC50 values were determined using Sigmoidal non-linear regression analysis with GraphPad Prism software and were summarized in Table 6.

A further experiment relates to MDA-MB-361. Briefly: In vitro cytotoxic activity (Cell Titer Glo). The format is cell-based, human. The following applies: MDA-MB-361, 3 to 4 days; read-out: In vitro potency (EC50 in pM).
A further experiment deals with ST996 model. Briefly: PDX tumor model (triple-negative, HER2 IHC 1+). The experiment is classed as in vivo, Athymic nude mice. The following applies: Bs2-2T at 3 mg/kg. As to the method:
as §1

A further experiment relates to ST455B model. Briefly: PDX tumor model (triple-negative, HER2 IHC 1+). The experiment is classed as in vivo, Athymic nude mice. The conditions noted are these: Bs2-4T at 3 mg/kg. As to the method:
as §1

The target of a further experiment is mouse Her2 (Mus musculus, UniProt P70424). Briefly: Capture ELISA binding specificity / species cross-reactivity. The arrangement: recombinant extracellular domain proteins: human EGFR, human HER2, human HER3, human HER4, mouse Her2, or cynomolgus monkey Her2. The conditions noted are these: recombinant extracellular domain protein. The text has this:
(§2) To determine whether 39S retains the binding specificity and species cross-reactivity of its parental antibody AZ1.39.1, binding of 39S to the receptors of human ErbB family (EGFR, HER2, HER3, and HER4), the mouse Her2, and the cynomolgus monkey Her2 was examined by capture ELISA. Briefly, 96-well plates were coated with one of the following recombinant extracellular domain proteins: human EGFR, human HER2, human HER3, human HER4, mouse Her2, or cynomolgus monkey Her2. Antibody to be tested was prepared by diluting in a stepwise 1:3 serial dilution ranging from 50 nM down to 0.28 pM and then added to the wells in duplicate. After one hour of incubation, plates were washed, and goat anti-human IgG Fab HRP-conjugated secondary antibody was added to each well and the plates were incubated for 1 hour. The plates were washed and TMB substrate was added and incubated for 5-20 min to allow color development. The stop solution was added to the wells at the end of reaction and the plates were read at 450 nm. Binding signal (absorbance at 450 nm) was plotted against antibody concentration using Prism software.
(§3) Binding specificity and species cross-reactivity of bispecific antibodies to the recombinant extracellular domain protein of human EGFR, human HER2, human HER3, human HER4, mouse Her2, or cynomolgus monkey Her2 were determined by capture ELISA as described in Example 1. […]
(ELISA stands for enzyme-linked immunosorbent assay.)

For the next experiment, the target named is HER2 (Homo sapiens, UniProt P04626). Described as above. The arrangement: recombinant extracellular domain proteins: human EGFR, human HER2, human HER3, human HER4, mouse Her2, or cynomolgus monkey Her2. The following applies: recombinant extracellular domain protein.
Description: as §2, §3

mouse Her2, sequence (P70424 23-653 limits assumed): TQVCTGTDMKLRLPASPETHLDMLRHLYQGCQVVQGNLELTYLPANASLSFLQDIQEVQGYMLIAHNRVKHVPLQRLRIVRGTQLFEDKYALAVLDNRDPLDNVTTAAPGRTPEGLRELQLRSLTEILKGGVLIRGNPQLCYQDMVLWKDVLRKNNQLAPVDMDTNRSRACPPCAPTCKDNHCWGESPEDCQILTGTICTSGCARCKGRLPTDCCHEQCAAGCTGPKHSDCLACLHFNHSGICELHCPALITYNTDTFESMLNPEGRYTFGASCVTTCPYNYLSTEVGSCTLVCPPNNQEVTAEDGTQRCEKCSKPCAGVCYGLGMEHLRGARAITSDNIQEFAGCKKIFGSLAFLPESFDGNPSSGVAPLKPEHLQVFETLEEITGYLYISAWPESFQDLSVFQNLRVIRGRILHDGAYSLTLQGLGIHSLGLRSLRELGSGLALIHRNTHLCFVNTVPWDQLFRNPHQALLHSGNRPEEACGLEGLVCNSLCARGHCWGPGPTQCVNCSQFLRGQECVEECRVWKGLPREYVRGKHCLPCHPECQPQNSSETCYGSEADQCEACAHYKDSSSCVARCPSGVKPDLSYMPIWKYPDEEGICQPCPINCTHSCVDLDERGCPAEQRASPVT

For the molecule T-DM1 [reference compound], the EC50 was 344 pM with MDA-MB-453, 275 pM with NCI-N87 and 266 pM with MDA-MB-361. The “In vitro potency (EC50 in pM)” value in the experiment on T47D was “Inactive”. For the same molecule, the “in vivo activity (tumor growth)” value was “limited activity” in the experiment with MDA-MB-361 model, “no activity” in the experiment with ST996 model and “no activity” in the experiment on ST455B model. For the same molecule, the bystander effect result in [1] is given as “does not have bystander effect”.

B1: 39S: lead optimized monoclonal antibody derived from the 1.39.1 antibody; VH SEQ ID NO:15, VL SEQ ID NO:16 (antibody, V domains shown)
VH: EVQLVESGGGLVKPGGSLRLSCAASGFTFSSYSMSWVRQAPGKGLEWVSSISSSSSYIYYADSVKGRFTISRDNAKNSLYLQMNSLRAEDTAVYYCARGGDAYNYYYFDYWGQGTLVTVSS
VL: DIVMTQTPLSLSVTPGQPASISCKSSQSVFFRSNNKNILAWYLQKPGQPPQLLIYWASSRESGVPDRFSGSGSGTDFTLKISRVEAEDVGVYYCQQYFGSPFTFGPGTKVDIK
As to B1, the “binding by capture ELISA” value with mouse Her2 was “not”; in the experiment with HER2 it was “can bind”.

As a reminder, the EC50 is the concentration at which the effect is half-maximal.

The record behind these values is US10160812B2, “Bispecific HER2 antibodies” (MedImmune, LLC, priority 2014, dated 2018).
